Test results taken from PubChem BioAssay AID330 (DTP/NCI, 2004).
Values joined by “and” are separate entries in the source; they are usually repeats but may differ in a detail not shown here. Identical values can stand only once. Toxic doses and inconclusive results are not listed.

Tested on: P388 leukemia ip, CD2F1 mice, survival T/C
Assay: NCI In Vivo Anticancer Drug Screen. Data for tumor model P388 Leukemia (intraperitoneal) in CD2F1 (CDF1) mice
Details: endpoint: median survival time, higher = longer survival
Outline: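 Mice carrying the transplanted tumor received test compound or vehicle. Survival was recorded in each group, and the value is the treated-group measurement divided by that of the vehicle-treated control group.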

[1] = dose: 50.0 mg/kg/injection, schedule: Q01DX009 (ip), vehicle: Klucel (hydroxypropylcellulose) (HPC)
[2] = dose: 100.0 mg/kg/injection, schedule: Q01DX009 (ip), vehicle: Klucel (hydroxypropylcellulose) (HPC)
[3] = dose: 200.0 mg/kg/injection, schedule: Q01DX009 (ip), vehicle: Klucel (hydroxypropylcellulose) (HPC)
[4] = dose: 50.0 mg/kg/injection, schedule: Q01DX005 (ip), vehicle: Klucel (hydroxypropylcellulose) (HPC)
[5] = dose: 100.0 mg/kg/injection, schedule: Q01DX005 (ip), vehicle: Klucel (hydroxypropylcellulose) (HPC)
[6] = dose: 200.0 mg/kg/injection, schedule: Q01DX005 (ip), vehicle: Klucel (hydroxypropylcellulose) (HPC)
[7] = dose: 50.0 mg/kg/injection, schedule: Q01DX005 (ip), vehicle: saline with Tween-80
[8] = dose: 100.0 mg/kg/injection, schedule: Q01DX005 (ip), vehicle: saline with Tween-80
[9] = dose: 200.0 mg/kg/injection, schedule: Q01DX005 (ip), vehicle: saline with Tween-80
[10] = dose: 25.0 mg/kg/injection, schedule: Q01DX009 (ip), vehicle: saline with Tween-80
[11] = dose: 50.0 mg/kg/injection, schedule: Q01DX009 (ip), vehicle: saline with Tween-80
[12] = dose: 100.0 mg/kg/injection, schedule: Q01DX009 (ip), vehicle: saline with Tween-80
[13] = dose: 200.0 mg/kg/injection, schedule: Q01DX009 (ip), vehicle: saline with Tween-80
[14] = dose: 100.0 mg/kg/injection, schedule: Q04DX002 (ip), vehicle: saline with Tween-80
[15] = dose: 100.0 mg/kg/injection, schedule: Q04DX003 (ip), vehicle: saline

S=C(NCc1cccnc1)Nc1ccc(Cl)c(Cl)c1
T/C [1]: 104 % of control
T/C [2]: 108 % of control
T/C [3]: 104 % of control

CCOC=Nc1c(N)ncnc1Cl
T/C [2]: 102 % of control
T/C [3]: 105 % of control
T/C (dose: 400.0 mg/kg/injection, schedule: Q01DX009 (ip), vehicle: Klucel (hydroxypropylcellulose) (HPC)): 106 % of control

CC1(C)CC(NCCN)=CC(=S)N1
T/C [4]: 98 % of control
T/C [5]: 98 % of control
T/C [6]: 104 % of control

CN1C(=O)C(=N[O-])C(=O)N(C)C1=O.CN1C(=O)C(=N[O-])C(=O)N(C)C1=O.CN1C(=O)C(=N[O-])C(=O)N(C)C1=O.[Co+3]
T/C [7]: 100 % of control
T/C [8]: 119 % of control
T/C [9]: 107 % of control

Cc1ccnc(NS(=O)(=O)c2ccc(Nc3c4ccccc4nc4cc(Cl)ccc34)cc2)n1
T/C (dose: 100.0 mg/kg/injection, schedule: Q04DX003 (ip), vehicle: Klucel (hydroxypropylcellulose) (HPC)): 104 % of control and 114 % of control
T/C (dose: 200.0 mg/kg/injection, schedule: Q04DX003 (ip), vehicle: Klucel (hydroxypropylcellulose) (HPC)): 106 % of control and 118 % of control
T/C (dose: 400.0 mg/kg/injection, schedule: Q04DX003 (ip), vehicle: Klucel (hydroxypropylcellulose) (HPC)): 124 % of control

COc1cc(CCN=Cc2ccccc2O)c([N+](=O)[O-])cc1OC
T/C [4]: 97 % of control
T/C [5]: 100 % of control
T/C [6]: 92 % of control

O=C(NC(Cc1ccccc1)C(=O)NC(Cc1c[nH]c2ccccc12)C(=O)O)OCc1ccccc1 (stereo not drawn)
T/C [7]: 90 % of control
T/C [8]: 98 % of control
T/C [9]: 91 % of control

CC(=O)OC1C(OC(C)=O)C2C(C)CC3OC(=O)C(C)C3CC2(C)C1OC(C)=O (stereo not drawn)
T/C (dose: 6.25 mg/kg/injection, schedule: Q01DX009 (ip), vehicle: saline): 110 % of control
T/C (dose: 12.5 mg/kg/injection, schedule: Q01DX009 (ip), vehicle: saline): 103 % of control
T/C [10]: 100 % of control (2×) and 123 % of control
T/C (dose: 25.0 mg/kg/injection, schedule: Q01DX009 (ip), vehicle: saline): 113 % of control
T/C [11]: 100 % of control and 121 % of control and 97 % of control
T/C [12]: 103 % of control and 104 % of control and 93 % of control
T/C [13]: 96 % of control
T/C (dose: 400.0 mg/kg/injection, schedule: Q01DX009 (ip), vehicle: saline with Tween-80): 96 % of control

C/C=C/c1ccc(OC(C)C(=O)c2ccc3c(c2)OCO3)c(OC)c1 (stereo not drawn)
T/C (dose: 10.0 mg/kg/injection, schedule: Q01DX005 (ip), vehicle: Klucel (hydroxypropylcellulose) (HPC)): 108 % of control
T/C (dose: 20.0 mg/kg/injection, schedule: Q01DX005 (ip), vehicle: Klucel (hydroxypropylcellulose) (HPC)): 101 % of control
T/C (dose: 40.0 mg/kg/injection, schedule: Q01DX005 (ip), vehicle: Klucel (hydroxypropylcellulose) (HPC)): 101 % of control

CCCCCCCCCCCCCCCC(=O)OOC(C)(C)C
T/C (dose: 60.0 mg/kg/injection, schedule: Q01DX005 (ip), vehicle: saline with Tween-80): 93 % of control
T/C (dose: 120.0 mg/kg/injection, schedule: Q01DX005 (ip), vehicle: saline with Tween-80): 94 % of control
T/C (dose: 240.0 mg/kg/injection, schedule: Q01DX005 (ip), vehicle: saline with Tween-80): 93 % of control

COc1ccc(C2=CC(OO)(C(C)(C)C)C(=O)C(C(C)(C)C)=C2)cc1.Oc1ccccc1C=NCCC[N-]CCCN=Cc1ccccc1O.[Co] (stereo not drawn)
T/C [1]: 101 % of control
T/C [2]: 101 % of control
T/C [3]: 100 % of control

O=C(O)c1cc(-c2ccccc2)[nH]c1-c1ccccc1
T/C (dose: 12.5 mg/kg/injection, schedule: Q01DX009 (ip), vehicle: saline with Tween-80): 103 % of control
T/C [10]: 106 % of control
T/C [11]: 90 % of control

O=[N+]([O-])c1ccc2c(c1)Cc1cc(N(CCCl)CCCl)ccc1-2
T/C [1]: 94 % of control
T/C [2]: 92 % of control
T/C [3]: 94 % of control

NC(N)=NOCC[C@@H](N)C(=O)O
T/C (dose: 50.0 mg/kg/injection, schedule: Q01DX005 (ip), vehicle: saline): 100 % of control
T/C (dose: 100.0 mg/kg/injection, schedule: Q01DX005 (ip), vehicle: saline): 99 % of control
T/C (dose: 200.0 mg/kg/injection, schedule: Q01DX005 (ip), vehicle: saline): 101 % of control
T/C (dose: 400.0 mg/kg/injection, schedule: Q01DX005 (ip), vehicle: saline): 91 % of control
T/C (dose: 1000.0 mg/kg/injection, schedule: Q01DX001 (ip), vehicle: saline): 95 % of control

CCCC(NC(N)=O)C(CCC)NC(N)=O (stereo not drawn)
T/C [11]: 102 % of control

O=S1(=O)CC(N2CCOCC2)C2=C(O1)c1ccccc1OCC2 (stereo not drawn)
T/C [4]: 98 % of control
T/C [5]: 97 % of control
T/C [6]: 88 % of control

C[S+](C)CCCNC(=O)c1csc(-c2csc(-c3ccccc3)n2)n1
T/C (dose: 6.25 mg/kg/injection, schedule: Q01DX005 (ip), vehicle: water): 100 % of control
T/C (dose: 12.5 mg/kg/injection, schedule: Q01DX005 (ip), vehicle: water): 107 % of control
T/C (dose: 25.0 mg/kg/injection, schedule: Q01DX005 (ip), vehicle: water): 106 % of control

C=CC(C)(C)C1=CC(=O)C(OC)=CC1=O
T/C [4]: 100 % of control
T/C [5]: 103 % of control
T/C [6]: 100 % of control

O=C1OC(C(F)(F)F)=NC1Cc1ccccc1 (stereo not drawn)
T/C (dose: 100.0 mg/kg/injection, schedule: Q04DX003 (ip), vehicle: saline with Tween-80): 107 % of control
T/C (dose: 200.0 mg/kg/injection, schedule: Q04DX003 (ip), vehicle: saline with Tween-80): 98 % of control
T/C (dose: 400.0 mg/kg/injection, schedule: Q04DX003 (ip), vehicle: saline with Tween-80): 101 % of control

CCC[C@@H]1C[C@@H](OC(=S)SC)C[C@H]2CCC(=O)N12
T/C (dose: 50.0 mg/kg/injection, schedule: Q01DX005 (ip), vehicle: Klucel + Tween-80): 102 % of control
T/C (dose: 100.0 mg/kg/injection, schedule: Q01DX005 (ip), vehicle: Klucel + Tween-80): 93 % of control
T/C (dose: 200.0 mg/kg/injection, schedule: Q01DX005 (ip), vehicle: Klucel + Tween-80): 107 % of control

CC(=O)N/C(=C\c1ccc(Cl)cc1)C(=O)c1ccc(C)cc1
T/C (dose: 50.0 mg/kg/injection, schedule: Q01DX001 (ip), vehicle: saline with Tween-80): 99 % of control
T/C (dose: 100.0 mg/kg/injection, schedule: Q01DX001 (ip), vehicle: saline with Tween-80): 97 % of control
T/C (dose: 200.0 mg/kg/injection, schedule: Q01DX001 (ip), vehicle: saline with Tween-80): 97 % of control

CC(C)(C)c1cc2c(O)c(c1)Cc1cc(C(C)(C)C)cc(c1O)Cc1cc(C(C)(C)C)cc(c1O)Cc1cc(C(C)(C)C)cc(c1O)C2
T/C [4]: 100 % of control
T/C [5]: 102 % of control
T/C [6]: 96 % of control

O=C1CN(/N=C/c2ccc(-c3cccc(C(F)(F)F)c3)o2)C(=O)N1
T/C (dose: 50.0 mg/kg/injection, schedule: Q04DX002 (ip), vehicle: saline with Tween-80): 101 % of control
T/C [14]: 109 % of control

CC(CC(=O)c1ccccc1)=NCC(O)CN=C(C)CC(=O)c1ccccc1 (stereo not drawn)
T/C [11]: 96 % of control
T/C [12]: 94 % of control
T/C [13]: 93 % of control

C[C@]12CCNC(=O)C=C1CC[C@@H]1C2CC[C@@]2(C)C1CC[C@@H]2OC(=O)COc1ccc(N(CCCl)CCCl)cc1 (stereo partly drawn)
T/C [14]: 159 % of control
T/C (dose: 200.0 mg/kg/injection, schedule: Q04DX002 (ip), vehicle: saline with Tween-80): 199 % of control
T/C (dose: 400.0 mg/kg/injection, schedule: Q04DX002 (ip), vehicle: saline with Tween-80): 225 % of control

O=c1[nH]c(=O)c2cc([N+](=O)[O-])cc([N+](=O)[O-])c2[nH]1
T/C (dose: 50.0 mg/kg/injection, schedule: Q04DX003 (ip), vehicle: saline): 118 % of control
T/C [15]: 89 % of control

CCCNC(=S)N/N=C\C(C)=N\Nc1ccc(Cl)cc1
T/C [15]: 95 % of control
T/C (dose: 200.0 mg/kg/injection, schedule: Q04DX003 (ip), vehicle: saline): 96 % of control
T/C (dose: 400.0 mg/kg/injection, schedule: Q04DX003 (ip), vehicle: saline): 97 % of control

CC1CCC2C(C)C(=O)OC3OC4(C)CCC1C32OO4 (stereo not drawn)
T/C (dose: 2.5 mg/kg/injection, schedule: Q01DX005 (ip), vehicle: saline + alcohol): 105 % of control
T/C (dose: 5.0 mg/kg/injection, schedule: Q01DX005 (ip), vehicle: saline + alcohol): 108 % of control
T/C (dose: 10.0 mg/kg/injection, schedule: Q01DX005 (ip), vehicle: saline + alcohol): 108 % of control
T/C (dose: 20.0 mg/kg/injection, schedule: Q01DX005 (ip), vehicle: saline + alcohol): 105 % of control
